Laboratory results taken from patent US10861154B2, “Cell analysis system, cell analysis program and cell analysis method” (Sony Corporation, priority 2013, dated 2020).
Each block holds one compound with its values, some of them ahead of it.

How the values were obtained:
Assay type in all cases: cell-based
[1] = tested on: iPS cell-derived neural cells “iCell Neuron”; experiment: Motion amount of iCell Neuron after adding ionotropic receptor antagonists (Example 2); details: 5 μM, FIGS. 9 and 10
Experimental: (§1) On the microscope having the chamber, iPS cell-derived neural cells “iCell Neuron” (produced by Cellular Dynamics International, Inc.) and rat cerebral cortex primary culture (produced by Lonza, Inc.) were each set. Video images of the cells, of 260 frames at object lens magnification 20× and at 7.5 fps (for iCell Neuron) or 5 fps (for rat cerebral cortex primary culture), were taken and were obtained as cell images. A variety of ionotropic receptor antagonists were added to each of the cell cultures. The ionotropic receptor antagonist was Bicuculline which is GABA (gamma-aminobutyrate) receptor antagonist; or CNQX (6-cyano-7-nitroquinoxaline-2,3-dione) which is non-NMDA Glu (glutamate) receptor antagonist.
(§2) The cell image was analyzed with the use of the above-described cell analysis system. Specifically, the motion information was extracted by block matching, using each of the neural cells in the cell image as the extraction range, and the motion amount was calculated from the motion information. FIGS. 9 to 12 are graphs showing results of the calculation of the motion amount. […] Note that the motion amounts shown in the respective figures are average values of the calculated motion amounts for a plurality of detail parts of nerves. […]

[2] = tested on: rat cerebral cortex primary culture; experiment: Motion amount of rat cerebral cortex primary culture after adding ionotropic receptor antagonists (Example 2)
Experimental: as §1, §2

[3] = tested on: rat cerebral cortex primary culture; experiment: Motion amount of rat cerebral cortex primary culture after adding aquaporin inhibitor (Example 3); details: 5 μm of HgCl2, FIG. 15
Experimental: Further, on the microscope having the chamber, rat cerebral cortex primary culture (produced by Lonza, Inc.) was set. A video image of the cells, of 260 frames at object lens magnification 20× and at 7.5 fps (for iCell Neuron) or 5 fps (for rat cerebral cortex primary culture), was taken and was obtained as a cell image. To the cell culture, […] of HgCl2 as aquaporin inhibitor was added.
The cell image was analyzed with the use of the above-described cell analysis system. Specifically, the motion information was extracted by block matching, using each of the neural cells in the cell image as the extraction range, and the motion amount was calculated from the motion information. FIG. 15 is a graph showing a result of the calculation of the motion amount. In the figure, “0 min” in the abscissa is the time of the addition of the […], and the ordinate indicates a relative motion amount when the value before adding HgCl2 (at 0 min) is assumed to be 1.

metabolism of the cell = experiment: Effect on metabolism of the cell; details: 5 μm of HgCl2
[4] = tested on: rat cerebral cortex primary culture; experiment: Motion amount of rat cerebral cortex primary culture on change in osmotic pressure by galactose (Example 3); details: galactose at a final concentration of 2.5%, compared with no galactose, FIG. 14
Experimental: On the microscope having the chamber, rat cerebral cortex primary culture (produced by Lonza, Inc.) was set. A video image of the cells, of 260 frames at object lens magnification 20× and at 5 fps, was taken and was obtained as a cell image. To the cell culture, galactose at a final concentration of 2.5% was added. The cell image was analyzed with the use of the above-described cell analysis system. Specifically, the motion information was extracted by block matching, using each of the neural cells in the cell image as the extraction range, and the motion amount was calculated from the motion information.

relative motion amount after adding the ionotropic receptor antagonist, value at 0 min = 1 ([2]; 5 μM, FIGS. 11 and 12): decreased
Structure (SMILES): N#Cc1cc2c(cc1[N+](=O)[O-])=NC(=O)C(=O)N=2 [CNQX, 6-cyano-7-nitroquinoxaline-2,3-dione]
relative motion amount after adding the ionotropic receptor antagonist, value at 0 min = 1 [1]: transiently reduced
motion amount for each individual cell ([2]; 5 μm of CNQX, FIG. 13): the cells in which the motion amount was decreased by an influence of the Glu receptor antagonist and the cells in which the motion amount was not decreased

Structure (SMILES): [Cl][Hg][Cl] [HgCl2]
relative motion amount after adding HgCl2, value at 0 min = 1 [3]: transiently reduced
inhibition of metabolism of the cell (metabolism of the cell): does not inhibit metabolism of the cell

Structure (SMILES): O=C[C@H](O)[C@@H](O)[C@@H](O)[C@H](O)CO [galactose]
median value of the motion amounts for the extraction ranges [4]: almost completely reduced
